From PubChem BioAssay AID2060606 (Molecular Pharmacology Branch, DTP, NCI, 2025)

System: 922993-354-T-J3-PDC complex spheroids, viability, % test/control
Assay: Anticancer human tumor 922993-354-T-J3-PDC patient-derived endometrial carcinoma cell line growth inhibition [CLK]
Settings: for IC50: curve of first compound; for viability, T/C: stronger effect = lower value
How it was run: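 Multi-cell-type spheroids combined patient-derived tumor cells with HUVEC endothelial cells and human mesenchymal stem cells. Paired agents were dosed in half-log steps down from about clinical Cmax, or from 10 microM where Cmax was unknown.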
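Note: spheroids exposed to the agents for 7 days before readout.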

Question: With `CC(C)CC(NC(=O)C(Cc1ccccc1)NC(=O)c1cnccn1)B(O)O` (centres undefined) + CN1CCN(c2cc(C(=O)Nc3cc4cc(-c5cnn(C)c5)ccc4cn3)ccn2)CC1 as the molecule, how does the IC50 (second compound 0.0316 µM) read?
Answer: 6.51 nM

Question: What about the IC50 (second compound 0.1 µM) of the same molecule?
Answer: 6.63 nM

Question: What about the IC50 (second compound 0.316 µM) of the same molecule?
Answer: < 0.949 nM

Question: What about the IC50 (second compound 1 µM) of the same molecule?
Answer: < 0.949 nM

Question: What about the IC50 (second compound 3.16 µM) of the same molecule?
Answer: < 0.949 nM

Question: And the IC50 (second compound 10 µM)?
Answer: < 0.949 nM

Question: And the viability, T/C (second compound 0.0316 µM, first compound 0.000949 µM)?
Answer: 103%

Question: And the viability, T/C (second compound 0.0316 µM, first compound 0.003 µM)?
Answer: 85.5%

Question: What about the viability, T/C (second compound 0.0316 µM, first compound 0.00949 µM) of the same molecule?
Answer: 32.6%

Question: And the viability, T/C (second compound 0.0316 µM, first compound 0.03 µM)?
Answer: 6.15%

Question: And the viability, T/C (second compound 0.0316 µM, first compound 0.0949 µM)?
Answer: 1.44%

Question: What about the viability, T/C (second compound 0.0316 µM, first compound 0.3 µM) of the same molecule?
Answer: 1.26%

Question: What about the viability, T/C (second compound 0.1 µM, first compound 0.000949 µM) of the same molecule?
Answer: 94.7%

Question: What about the viability, T/C (second compound 0.1 µM, first compound 0.003 µM) of the same molecule?
Answer: 74.5%

Question: And the viability, T/C (second compound 0.1 µM, first compound 0.00949 µM)?
Answer: 40.2%

Question: And the viability, T/C (second compound 0.1 µM, first compound 0.03 µM)?
Answer: 8.34%

Question: What about the viability, T/C (second compound 0.1 µM, first compound 0.0949 µM) of the same molecule?
Answer: 1.08%

Question: And the viability, T/C (second compound 0.1 µM, first compound 0.3 µM)?
Answer: 1.56%

Question: What about the viability, T/C (second compound 0.316 µM, first compound 0.000949 µM) of the same molecule?
Answer: 50.3%

Question: What about the viability, T/C (second compound 0.316 µM, first compound 0.003 µM) of the same molecule?
Answer: 28.6%

Question: And the viability, T/C (second compound 0.316 µM, first compound 0.00949 µM)?
Answer: 20.6%

Question: And the viability, T/C (second compound 0.316 µM, first compound 0.03 µM)?
Answer: 6.46%

Question: What about the viability, T/C (second compound 0.316 µM, first compound 0.0949 µM) of the same molecule?
Answer: 1.39%

Question: What about the viability, T/C (second compound 0.316 µM, first compound 0.3 µM) of the same molecule?
Answer: 0.48%

Question: And the viability, T/C (second compound 1 µM, first compound 0.000949 µM)?
Answer: 0.16%

Question: What about the viability, T/C (second compound 1 µM, first compound 0.003 µM) of the same molecule?
Answer: 1.6%

Question: And the viability, T/C (second compound 1 µM, first compound 0.00949 µM)?
Answer: 0.98%

Question: And the viability, T/C (second compound 1 µM, first compound 0.03 µM)?
Answer: 0.44%

Question: And the viability, T/C (second compound 1 µM, first compound 0.0949 µM)?
Answer: 0.08%

Question: What about the viability, T/C (second compound 1 µM, first compound 0.3 µM) of the same molecule?
Answer: 0.48%

Question: What about the viability, T/C (second compound 3.16 µM, first compound 0.000949 µM) of the same molecule?
Answer: 0.1%

Question: What about the viability, T/C (second compound 3.16 µM, first compound 0.003 µM) of the same molecule?
Answer: 0.68%

Question: And the viability, T/C (second compound 3.16 µM, first compound 0.00949 µM)?
Answer: 1%

Question: And the viability, T/C (second compound 3.16 µM, first compound 0.03 µM)?
Answer: 0.07%

Question: And the viability, T/C (second compound 3.16 µM, first compound 0.0949 µM)?
Answer: 0.83%

Question: What about the viability, T/C (second compound 3.16 µM, first compound 0.3 µM) of the same molecule?
Answer: 0.79%

Question: What about the viability, T/C (second compound 10 µM, first compound 0.000949 µM) of the same molecule?
Answer: 0.08%

Question: What about the viability, T/C (second compound 10 µM, first compound 0.003 µM) of the same molecule?
Answer: 1.39%

Question: And the viability, T/C (second compound 10 µM, first compound 0.00949 µM)?
Answer: 0.12%

Question: And the viability, T/C (second compound 10 µM, first compound 0.03 µM)?
Answer: 0.16%

Question: What about the viability, T/C (second compound 10 µM, first compound 0.0949 µM) of the same molecule?
Answer: 2.52%

Question: And the viability, T/C (second compound 10 µM, first compound 0.3 µM)?
Answer: 2.16%

Question: With `O=C(c1cc(Cc2n[nH]c(=O)c3ccccc23)ccc1F)N1CCN(C(=O)C2CC2)CC1` + CN1CCN(c2cc(C(=O)Nc3cc4cc(-c5cnn(C)c5)ccc4cn3)ccn2)CC1 as the molecule, how does the IC50 (second compound 0.0316 µM) read?
Answer: > 10000 nM

Question: What about the IC50 (second compound 0.1 µM) of the same molecule?
Answer: > 10000 nM

Question: And the IC50 (second compound 0.316 µM)?
Answer: < 31.6 nM

Question: What about the IC50 (second compound 1 µM) of the same molecule?
Answer: < 31.6 nM

Question: What about the IC50 (second compound 3.16 µM) of the same molecule?
Answer: < 31.6 nM

Question: And the IC50 (second compound 10 µM)?
Answer: < 31.6 nM

Question: And the viability, T/C (second compound 0.0316 µM, first compound 0.0316 µM)?
Answer: 118%

Question: What about the viability, T/C (second compound 0.0316 µM, first compound 0.1 µM) of the same molecule?
Answer: 106%

Question: What about the viability, T/C (second compound 0.0316 µM, first compound 0.316 µM) of the same molecule?
Answer: 108%

Question: What about the viability, T/C (second compound 0.0316 µM, first compound 1 µM) of the same molecule?
Answer: 117%

Question: And the viability, T/C (second compound 0.0316 µM, first compound 3.16 µM)?
Answer: 93.5%

Question: And the viability, T/C (second compound 0.0316 µM, first compound 10 µM)?
Answer: 97%

Question: What about the viability, T/C (second compound 0.1 µM, first compound 0.0316 µM) of the same molecule?
Answer: 92.1%

Question: And the viability, T/C (second compound 0.1 µM, first compound 0.1 µM)?
Answer: 98.6%

Question: What about the viability, T/C (second compound 0.1 µM, first compound 0.316 µM) of the same molecule?
Answer: 95.8%

Question: And the viability, T/C (second compound 0.1 µM, first compound 1 µM)?
Answer: 87%

Question: And the viability, T/C (second compound 0.1 µM, first compound 3.16 µM)?
Answer: 84.6%

Question: And the viability, T/C (second compound 0.1 µM, first compound 10 µM)?
Answer: 84.8%

Question: And the viability, T/C (second compound 0.316 µM, first compound 0.0316 µM)?
Answer: 44.1%

Question: And the viability, T/C (second compound 0.316 µM, first compound 0.1 µM)?
Answer: 32%

Question: What about the viability, T/C (second compound 0.316 µM, first compound 0.316 µM) of the same molecule?
Answer: 24.3%

Question: And the viability, T/C (second compound 0.316 µM, first compound 1 µM)?
Answer: 33%

Question: What about the viability, T/C (second compound 0.316 µM, first compound 3.16 µM) of the same molecule?
Answer: 39.1%

Question: What about the viability, T/C (second compound 0.316 µM, first compound 10 µM) of the same molecule?
Answer: 32.2%

Question: And the viability, T/C (second compound 1 µM, first compound 0.0316 µM)?
Answer: 0.1%

Question: What about the viability, T/C (second compound 1 µM, first compound 0.1 µM) of the same molecule?
Answer: 0.12%

Question: What about the viability, T/C (second compound 1 µM, first compound 0.316 µM) of the same molecule?
Answer: 1.56%

Question: What about the viability, T/C (second compound 1 µM, first compound 1 µM) of the same molecule?
Answer: 0.08%

Question: And the viability, T/C (second compound 1 µM, first compound 3.16 µM)?
Answer: 1.32%

Question: What about the viability, T/C (second compound 1 µM, first compound 10 µM) of the same molecule?
Answer: 1.97%

Question: What about the viability, T/C (second compound 3.16 µM, first compound 0.0316 µM) of the same molecule?
Answer: 0.08%

Question: What about the viability, T/C (second compound 3.16 µM, first compound 0.1 µM) of the same molecule?
Answer: 0.63%

Question: What about the viability, T/C (second compound 3.16 µM, first compound 0.316 µM) of the same molecule?
Answer: 0.57%

Question: And the viability, T/C (second compound 3.16 µM, first compound 1 µM)?
Answer: 0.11%

Question: What about the viability, T/C (second compound 3.16 µM, first compound 3.16 µM) of the same molecule?
Answer: 1.25%

Question: And the viability, T/C (second compound 3.16 µM, first compound 10 µM)?
Answer: 1.13%

Question: What about the viability, T/C (second compound 10 µM, first compound 0.0316 µM) of the same molecule?
Answer: 0.12%

Question: What about the viability, T/C (second compound 10 µM, first compound 0.1 µM) of the same molecule?
Answer: 1.28%

Question: And the viability, T/C (second compound 10 µM, first compound 0.316 µM)?
Answer: 2.09%

Question: And the viability, T/C (second compound 10 µM, first compound 1 µM)?
Answer: 1.28%

Question: What about the viability, T/C (second compound 10 µM, first compound 3.16 µM) of the same molecule?
Answer: 0.42%

Question: And the viability, T/C (second compound 10 µM, first compound 10 µM)?
Answer: 2.31%
